Assay results as given in publication PMC9135230, “Extending the lore of curcumin as dipteran Butyrylcholine esterase (BChE) inhibitor: A holistic molecular interplay assessment” (PLoS ONE, 2022).

Legend:
[1] = tested on: T1, Butyrylcholine esterase (BChE); test: Ellman assay with S-butyrylthiocholine iodide in larval lysate; type: biochemical, Aedes aegypti
T1 construct: larval lysate (4th instar), native enzyme activity

[2] = tested on: T1, Butyrylcholine esterase (BChE); test: Ellman assay in larval lysate; Michaelis-Menten and Lineweaver-Burk kinetics; type: biochemical, Aedes aegypti

**Q.** `CCN(C)C(=O)Oc1cccc([C@H](C)N(C)C)c1` [rivastigmine] was tested. Which IC50 [1] did it give?
**A.** 4.97 µM

**Q.** Which IC50 [2] does the source give for `COc1cc(/C=C/C(=O)CC(=O)/C=C/c2ccc(O)c(OC)c2)ccc1O` [curcumin] here?
**A.** 201 µM
